Assay [1] relates to bovine aortic vascular endothelial cells. Kind of assay: Vascular endothelial cell growth promoting action (BrdU uptake). Format: cell-based. To be noted: 20 hours. As to the method:
This test used bovine aortic vascular endothelial cells (passage number 3) as cells, and MEM containing 10% FCS (fetal calf serum), 100 units/mL penicillin G, and 100 μg/mL streptomycin as a culture medium. […] Culture was performed for 20 hours at 37° C. and 5% CO2, and then the effect of the compounds on vascular endothelial cell growth was measured using “Cell Growth ELISA, BrdU Color Development Kit” (Boehringer Mannheim) (uptake of 5-bromodeoxyuridine (BrdU) was adopted as an indicator).

For assay [2] the test system is unchanged.
Protocol: A test was conducted to investigate the interaction of the compounds of the invention with vascular endothelial growth factor (VEGF). As the VEGF, human recombinant VEGF was used (Vascular Endothelial Growth Factor, Human, Recombinant, For Biochemical Use: a product of Wako Pure Chemical Industries).
The test was conducted in the same manner as in Example 12, but VEGF (final concentration 10 ng/mL) was added simultaneously with the addition of the compound. As comparative tests, a VEGF single addition test (a test in which only VEGF was added) and a negative control test (a test in which neither the compound nor VEGF was added) were performed. The effect on vascular endothelial cell growth was measured in the same way as in Example 12.
The vascular endothelial cell growth promoting action of each of the compounds was evaluated from the following equation:
Promoting rate (%)={(Increase in the BrdU uptake in the compound addition test)/(Increase in the BrdU uptake in the negative control test)}×100
Assay [3] concerns rabbit platelet rich plasma. To be noted: read-out: 50% Inhibitory Concentration; collagen-induced platelet aggregation, rabbit PRP. As for the experimental part:
Blood was taken from the rabbit aorta in an amount of 9 volumes of the blood per volume of a 3.8% aqueous solution of sodium citrate. The blood sample was immediately centrifuged (50×g, 10 min, room temperature) to obtain platelet rich plasma (PRP) as a supernatant. […] The mixture was held for 1 minute at 37° C., and then 10 μL of 10 μg/mL collagen (bovine tendon collagen: a product of Meiji Yakuhin) was added as an aggregation inducer. An aggregation curve was recorded for 7 minutes after addition.

[4] abbreviates: compound concentration 0.1 μg/mL.
The mark [5] stands for this setting: compound concentration 0.5 μg/mL.
Setting [6] is: compound concentration 10 μg/mL.
[7] abbreviates: compound concentration 0.1 μg/mL + VEGF 10 ng/mL.
The mark [8] stands for this setting: compound concentration 0.5 μg/mL + VEGF 10 ng/mL.
Where [9] appears, read: compound concentration 1 μg/mL + VEGF 10 ng/mL.
Where [10] appears, read: compound concentration 5 μg/mL + VEGF 10 ng/mL.
Where [11] appears, read: compound concentration 10 μg/mL + VEGF 10 ng/mL.

Where two headings read alike, the source gives them in different places.

As to “4-deoxy-α-L-threo-hexa-4-enepyranuronosyl-(1→3)-O-2-acetamide-2-deoxy-β-D-glucopyranosyl-(1→4)-3-O-β-D-glucopyranuronosyl-(1→3)-O-2-acetamide-2-deoxy-β-D-glucopyranitol [Compound Example 5]”, the Promoting rate is listed as 101.1% in assay [1] (setting [4]); 144.2% in assay [1] (setting [5]); 182.7% in assay [1] (compound concentration 1 μg/mL); 169.9% in assay [1] (compound concentration 5 μg/mL); 141.1% in assay [1] (setting [6]); 160.9% in assay [2] (setting [7]). Further, the Promoting rate in assay [2] (setting [8]) was 205.0%; in assay [2] (setting [9]), 243.8%; in assay [2] (setting [10]) it was 231.1%; in assay [2] (setting [11]), 200.4%.
“4-deoxy-α-L-threo-hexa-4-enepyranuronosyl-(1→3)-O-2-acetamide-2-deoxy-β-D-glucopyranosyl-(1→4)-3-O-β-D-glucopyranuronosyl-(1→3)-O-2-acetamide-2-deoxy-β-D-glucopyranose [Compound Example 1]”: the IC50 in assay [3] amounted to 2700 nM.
For VEGF, in assay [2] (VEGF added alone, 10 ng/mL (compound concentration 0)), the Promoting rate is on record as 148.5%.
Take “4-deoxy-α-L-threo-hexa-4-enepyranuronosyl-(1→3)-O-2-acetamide-2-deoxy-β-D-glucopyranosyl-(1→4)-3-O-β-D-glucopyranuronitol [Compound Example 9]”: the Promoting rate in assay [1] (setting [4]) worked out at 102.8%; in assay [1] (setting [5]), 139.5%; in assay [1] (compound concentration 1 μg/mL), 180.3%; in assay [1] (compound concentration 5 μg/mL), 179.3%; in assay [1] (setting [6]), 133.4%; in assay [2] (setting [7]), 159.8%. The Promoting rate in assay [2] (setting [8]) is reported as 200.2%; in assay [2] (setting [9]) it was 245.6%; in assay [2] (setting [10]), 244.2%; in assay [2] (setting [11]), 196.8%.
In the case of “4-deoxy-α-L-threo-hexa-4-enepyranuronosyl-(1→3)-O-2-acetamide-2-deoxy-β-D-glucopyranosyl-(1→4)-3-O-β-D-glucopyranuronosyl-(1→3)-O-2-acetamide-2-deoxy-β-D-glucopyranosyl-(1→4)-3-O-β-D-glucopyranuronosyl-(1→3)-O-2-acetamide-2-deoxy-β-D-glucopyranose [Compound Example 2]”, the IC50 in assay [3] amounted to 3.2 nM.
Take “4-deoxy-α-L-threo-hexa-4-enepyranuronosyl-(1→3)-O-2-acetamide-2-deoxy-β-D-glucopyranosyl-(1→4)-3-O-β-D-glucopyranuronosyl-(1→3)-O-2-acetamide-2-deoxy-β-D-glucopyranosyl-(1→4)-3-O-β-D-glucopyranuronosyl-(1→3)-O-2-acetamide-2-deoxy-β-D-glucopyranitol [Compound Example 6]”: the IC50 in assay [3] stood at 2.7 nM. The Promoting rate in assay [1] (setting [4]) amounted to 100.5%; in assay [1] (setting [5]) it was 143.8%; in assay [1] (compound concentration 1 μg/mL), 167.9%; in assay [1] (compound concentration 5 μg/mL), 168.8%; in assay [1] (setting [6]) it was 142.2%; in assay [2] (setting [7]), 159.8%. Also, the Promoting rate was 205.2% in assay [2] (setting [8]), 232.2% in assay [2] (setting [9]), 224.8% in assay [2] (setting [10]) and 205.7% in assay [2] (setting [11]).
Take “4-deoxy-α-L-threo-hexa-4-enepyranuronosyl-(1→3)-O-2-acetamide-2-deoxy-β-D-glucopyranosyl-(1→4)-3-O-β-D-glucopyranuronic acid [Compound Example 7]”: the Promoting rate is reported as 104.8% in assay [1] (setting [4]); 139.7% in assay [1] (setting [5]); 172.6% in assay [1] (compound concentration 1 μg/mL); 170.0% in assay [1] (compound concentration 5 μg/mL); 129.7% in assay [1] (setting [6]); 165.0% in assay [2] (setting [7]). Further, the Promoting rate in assay [2] (setting [8]) is given as 206.2%; in assay [2] (setting [9]), 235.9%; in assay [2] (setting [10]) it was 228.7%; in assay [2] (setting [11]), 191.3%.
As to “4-deoxy-α-L-threo-hexa-4-enepyranuronosyl-(1→3)-O-2-acetamide-2-deoxy-β-D-glucopyranosyl-(1→4)-3-O-β-D-glucopyranuronosyl-(1→3)-O-2-acetamide-2-deoxy-β-D-glucopyranosyl-(1→4)-3-O-β-D-glucopyranuronic acid [Compound Example 8]”, the IC50 in assay [3] was determined as 3.8 nM. Moreover, the Promoting rate in assay [1] (setting [4]) turned out to be 103.3%; in assay [1] (setting [5]), 140.9%; in assay [1] (compound concentration 1 μg/mL) it was 181.1%; in assay [1] (compound concentration 5 μg/mL), 168.7%; in assay [1] (setting [6]), 141.3%; in assay [2] (setting [7]) it was 168.7%. Further, the Promoting rate in assay [2] (setting [8]) came out at 202.9%; in assay [2] (setting [9]), 251.2%; in assay [2] (setting [10]), 224.9%; in assay [2] (setting [11]), 199.2%.

Source of the values: patent publication US6613897B1, “Compounds having glucuronic acid derivatives and glucosamine derivative in the structure, process for producing the same and utilization thereof” (Maruha Corporation, priority 1998, dated 2003).
